Data from US8097422B2, “Kir channel modulators” (Salk Institute for Biological Studies, priority 2007, dated 2012).
Positions count from the first letter of the chain named.

What was measured:
Format in all cases: cell-based
GIRK2 PIP L257W mutant = biological target: T1, GIRK2 PIP L257W mutant (Mus musculus, UniProt P48542, D228N/I234L/L257W/M344L/N231K); test: whole-cell patch clamp, GIRK2 PIP L257W mutant channel; conditions: for inhibition of GIRK2 PIP L257W mutant channel, percentage inhibition: equimolar alcohol series (50 mM); for IC50: dose response, read-out: IC50 for inhibition of GIRK2 PIP L257W mutant
T1 construct: expressed in transfected cells; host or cells: HEK293 / HEK293T
T1 sequence (P48542 1-425 D228N/N231K/I234L/L257W/M344L): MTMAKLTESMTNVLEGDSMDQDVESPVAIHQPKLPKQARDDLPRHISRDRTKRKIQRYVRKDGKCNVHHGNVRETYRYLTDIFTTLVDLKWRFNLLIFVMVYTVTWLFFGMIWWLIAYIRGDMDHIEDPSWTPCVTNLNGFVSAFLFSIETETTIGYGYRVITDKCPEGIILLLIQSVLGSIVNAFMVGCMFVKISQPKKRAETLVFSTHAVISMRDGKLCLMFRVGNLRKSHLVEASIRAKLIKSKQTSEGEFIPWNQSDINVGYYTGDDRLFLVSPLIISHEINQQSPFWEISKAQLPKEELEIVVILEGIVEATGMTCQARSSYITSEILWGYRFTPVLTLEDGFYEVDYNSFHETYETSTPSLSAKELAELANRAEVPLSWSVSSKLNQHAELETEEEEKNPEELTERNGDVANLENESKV
Procedure: (§1) Point mutations were introduced by Quickchange site directed mutagenesis kit (Stratagene). The GIRK2 PIP mutant was generated by overlap-PCR method. […] Mutations were confirmed by automated DNA sequencing methods. […] Cells were plated in a 12 well dish, and were transiently transfected using Lipofectamine 2000 (Invitrogen). After 12-24 hrs, cells were re-plated to 12-mm glass coverslips coated with poly-D-[…] microgram/ml). […] The cells were co-transfected with 0.04 micrograms of eYFP cDNA to identify transfected cells. 0.8 micrograms of Muscarinic Receptor 2 (M2R) was also co-transfected for experiments with Carbachol. […] Whole-cell patch clamp recordings were performed 24-72 hrs after transfection. […] Alcohols, 5 μM Carbachol, and 1 mM BaCl2 (diluted in 20K solution) were applied from outside the cell with the rapid perfusion system (Warner Instruments). […] Current-voltage relationships also were obtained from the ramp protocol. This protocol was used to measure the inwardly rectifying currents at -100 mV and to ensure stability of recording by monitoring a reversal potential and inward rectification. […] Alcohol and Carbachol modulated currents were measured by averaging two consecutive current readings upon reaching steady state, and subtracting the averaged basal current before and after the application of modulator.

[1] = biological target: T2, GIRK4* Leu252 to Ala mutant channel (Rattus norvegicus, UniProt P48548, L252A/S143T); test: whole-cell patch clamp, GIRK4* L252A mutant channel; conditions: for percent activation of GIRK4* Leu252 to Ala mutant: n=8
T2 construct: expressed in transfected cells; host or cells: HEK293 / HEK293T
T2 sequence (P48548 1-419 S143T/L252A): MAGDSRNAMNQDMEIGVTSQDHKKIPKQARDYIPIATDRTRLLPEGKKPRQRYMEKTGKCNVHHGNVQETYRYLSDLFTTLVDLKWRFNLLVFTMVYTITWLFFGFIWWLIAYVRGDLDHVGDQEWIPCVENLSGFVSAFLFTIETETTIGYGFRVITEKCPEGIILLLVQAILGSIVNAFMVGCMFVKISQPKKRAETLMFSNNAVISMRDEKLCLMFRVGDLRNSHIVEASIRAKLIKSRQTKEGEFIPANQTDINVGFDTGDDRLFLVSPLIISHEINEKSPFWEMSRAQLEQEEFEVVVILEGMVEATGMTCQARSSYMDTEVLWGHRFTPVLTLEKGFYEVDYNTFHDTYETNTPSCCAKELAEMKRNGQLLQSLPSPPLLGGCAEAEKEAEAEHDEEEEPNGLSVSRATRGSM
Procedure: as §1

[2] = test system: GIRK2 L257Y mutant channel; test: whole-cell patch clamp, GIRK2 L257Y mutant channel; conditions: n=9; for activation of GIRK2 L257Y, percentage change from basal current: alcohols as for wild type (100 mM)
Procedure: as §1

[3] = biological target: T3, GIRK2 L257A mutant channel (Mus musculus, UniProt P48542, L257A); test: whole-cell patch clamp, GIRK2 L257A mutant channel; conditions: n=9; for activation of GIRK2 L257A, percentage change from basal current: alcohols as for wild type (100 mM)
T3 construct: expressed in transfected cells; host or cells: HEK293T
T3 sequence (P48542 1-425 L257A): T1 sequence (P48542 1-425 D228N/N231K/I234L/L257W/M344L) with N228D, K231N, L234I, W257A, L344M
Procedure: as §1

[4] = biological target: T4, GIRK4* Leu252 to Tyr mutant channel (Rattus norvegicus, UniProt P48548, L252Y/S143T); test: whole-cell patch clamp, GIRK4* L252Y mutant channel; conditions: for activation of GIRK4* Leu252 to Tyr mutant, percentage change from basal: n=8
T4 construct: expressed in transfected cells; host or cells: HEK293 / HEK293T
T4 sequence (P48548 1-419 S143T/L252Y): T2 sequence (P48548 1-419 S143T/L252A) with A252Y
Procedure: as §1

[5] = 5 μM Carbachol, M2R co-transfected

Row | Compound | inhibition of GIRK2 PIP L257W mutant channel, percentage inhibition (GIRK2 PIP L257W mutant) | percent activation of GIRK4* Leu252 to Ala mutant [1] | activation of GIRK2 L257Y, percentage change from basal current [2] | IC50 (GIRK2 PIP L257W mutant) | activation of GIRK2 L257A, percentage change from basal current [3] | activation of GIRK4* Leu252 to Tyr mutant, percentage change from basal [4] | Carb (G-protein mediated) activation, GIRK4* L252 Ala ([1]; 5 μM Carbachol) | Carbachol activation, GIRK2 L257Y, percentage change from basal current [2, 5] | Carbachol activated currents, GIRK2 L257A, percentage change from basal current [3, 5] | Carb (G-protein mediated) activation, GIRK4* L252 Tyr ([4]; 5 μM Carbachol)
1 | 1-butanol [1-BuOH] | −99±3% |  |  |  |  |  |  |  |  | 
2 | 1-propanol [1-PrOH] | −92±1% | 86±8% | 275±34% | ~5.1 mM | 467±44% | 15±3% |  |  |  | 
3 | CC(O)CC(C)(C)O (racemic) [MPD, 2-methyl-2,4-pentanediol] | −84±3% | 179±22% | 73±10% | ~7.7 mM | 330±27% |  |  |  |  | 
4 | C[N+](C)(C)CCOC(N)=O [Carbachol] |  |  |  |  |  |  | 51±8% | 38±11% | 36±6% | 110±14%
5 | CCO [EtOH, ethanol] | −20±2% |  | 92±10% |  | 132±9% | 20±3% |  |  |  | 
